Reference: patent US20260232682A1, “GSPT1 DEGRADER COMPOUNDS” (Captor Therapeutics S.A., priority 2023, published 2026)

Columns and labels:
[1] = target: [GSPT1]-[compound of formula (I)]-[CRBN/DDB1] complex (Homo sapiens, UniProt P15170+Q96SW2); experiment: HTRF ternary complex assay (GSPT1); type: binding; settings: read-out: HTRF ternary complex Average pEC50 by molecule (converted)
Method: The effect of the molecular glue compounds of the invention on the formation of a ternary complex composed of [GSPT1]-[compound of formula (I)]-[CRBN/DDB1] was investigated.
Mix solution of proteins and reagents was prepared: • 48 nM GSPT1, 52.8 nM 6×His-CRBN/DDB1, 3 nM of Streptavidin-Eu cryptate ([…]) and 6.67 nM of Anti-6×his-d2 ([…]) was prepared in PPI Europium detection buffer (purchased from Cisbio) with 1 mM DTT.
The tested compounds in dose-response were dispensed onto a white 384-well low volume plate (Greiner, 784075). DMSO was backfilled to all wells, resulting in a final DMSO content of 0.5%. Wells containing only DMSO served as background.
The plate was sealed with transparent film and shaken using a VibroTurbulator for 60 sec at level 3.
The plate was then spun down shortly (10 sec, 1000 rcf) and incubated at 25° C. for 180 min.
The read-out was performed with plate reader (Pherastar, BMG Labtech) in time resolved fluorescence mode. Filter settings: TR 337 665 620.
The results were analyzed as follows: • 1) an average of fluorescence for background signal was calculated and used as a negative control; • 2) raw fluorescence values for tested compounds were normalized against negative controls; • 3) saturation curve was fitted to specific binding with Hill slope model; • 4) EC50 and pEC50 values were determined.

[2] = target: [CK1α]-[compound]-[CRBN/DDB1] ternary complex (Homo sapiens, UniProt P48729+Q96SW2); experiment: AlphaLISA assay for off-target recruitment detection, CK1α; type: binding; settings: 1 μM compound; normalized to FPFT-2216; read-out: Normalized ternary complex response, CK1α
Method: The ability of the molecular glue compounds of the invention to mediate the proximity of CRBN with its known neo-substrates (shown in Table 3) was assessed using AlphaLISA to detect the formation of a [neo-substrate]-[compound of formula (I)]-[CRBN/DDB1] ternary complex.
Two types of protein solution were prepared: • neo-substrate, 40 μg/ml AlphaScreen Donor Beads (Table 3) in PBS (10 mM phosphate buffer, 137 mM NaCL, 2.7 mM KCl, pH 7.4) buffer supplemented with Tween-20 (Table 3) and 1 mM DTT, • 200 nM 6×His-CRBN/DDB1, 40 μg/ml AlphaLISA Anti-6×His Acceptor beads in PBS buffer with Tween-20 (Table 3) and 1 mM DTT.
The prepared solutions were incubated at room temperature for 30 min and then the solution containing the donor beads was mixed with the solution containing the acceptor beads.
The tested compounds were dispensed onto a white 384-well AlphaPlate 384 SW. DMSO was backfilled to all wells, resulting in a final DMSO content of 2%. Wells containing only DMSO served as background. Next, 10 μl of solution with donor and acceptor beads was added to the wells.
The plate was sealed with transparent film and shaken using a VibroTurbulator for 60 sec at room temperature, level 3. The plate was then spun down shortly (10 sec, 1000 rcf, room temperature) and incubated at 25° C. for 30 min.
The read-out was performed with PerkinElmer Enspire Multimode Plate Reader (method for AlphaLISA 384-well low volume, Filterset: λexc=680 nm, λem=615 nm).
The results were analyzed as follows: • 1) an average of luminescence for background signal was calculated and used as a negative control; • 2) an average of the maximum measured luminescence for reference compound (Table 3) was calculated and used as an internal positive control; • 3) raw luminescence values were normalized against positive and negative controls; • 4) Normalized responses to reference molecular glue were determined.

[3] = target: T1, GSPT1-HiBiT protein in GSPT1-HiBiT HEK293 cells (Homo sapiens, UniProt P15170+Q96SW2); experiment: GSPT1 degradation assay using HiBiT system (Nano-Glo HiBiT lytic assay); type: cell-based; settings: 6 hours treatment; for DC50: read-out: HiBiT lytic assay Geomean absolute DC50
T1 construct: endogenous in cells; host or cells: HEK293 (CRISPR/Cas9 knock-in of HiBiT at the GSPT1 locus)
From the text: The effect of selected compounds of the invention on GSPT1 protein levels was investigated, using the GSPT1-HiBiT HEK293 cell line and the Nano-Glo HiBiT degradation assay protocol below.
GSPT1-HiBiT HEK293 cells were generated in-house using the HEK293 parental cells (ATCC, cat. no 70016364) and the CRISPR/Cas9 system. HEK293 cells were transformed with pSpCas9-BB-2A-Puro v2.0 plasmid carrying gRNA targeting the C-terminus of GSPT1 and ssODN template containing the HiBiT tag sequence with flanking homology sequences. Neon Transfection System (Thermo Fisher Scientific) was used for electroporation. HEK293 GSPT1-HiBiT cells were cultured with DMEM Glutamax (Gibco) supplemented with 10% heat inactivated FBS (Gibco). After transfection the culture medium was changed to DMEM Glutamax with 10% heat-inactivated FBS and 1% Penicillin-Streptomycin (Biowest) supplemented with Puromycin (2 μg/ml; Invivogen) for clonal selection. In order to isolate single cell clones for further validation and analysis, limiting dilution cloning in 96-well plates was performed. When the single clones reached confluency, HiBiT Lytic Assay (Promega) was performed in order to identify HiBiT positive clones. The clone selected for further studies was verified and validated using genotyping and HiBiT Blotting (Promega).
Cells were maintained in DMEM Glutamax medium, supplemented with 1% penicillin/streptomycin and 10% Fetal Bovine Serum (FBS) at 37° C., 5% CO2. Compounds were stored frozen as 20 mM DMSO stocks.
For the Nano-Glo HiBiT assay, cells were seeded onto 384-well white solid bottom plate at 2×10^3 cells/well in 40 μL using the Agilent BioTek MultiFlo FX Multimode Dispenser and incubated overnight. Following overnight incubation (37° C., 5% CO2) cells were treated with the test compounds and vehicle only (DMSO) control using the Echo 555 Liquid Handler. Twelve data-point compound titration curve with concentrations ranging from 10 μM to 0.03 nM was used. Final DMSO concentration was kept constant at 0.25% v/v across the assay plate. After 6 hours of incubation (37° C., 5% CO2), plates were removed from the incubator and let to equilibrate to RT. Luminescent signal detection was conducted using the Nano-Glo HiBiT Lytic Detection System (Promega, cat. nr N3050). Nano-Glo HiBiT Lytic Reagent was prepared freshly by diluting the LgBiT Protein (1:100 vol/vol) and the Nano-Glo HiBiT Lytic Substrate (1:50 vol/vol) in the relevant volume of the Nano-Glo HiBiT Lytic Buffer. 40 μL of the HiBiT Lytic Reagent was added per well, plates were shaken to facilitate lysis (350 rpm, 5 min, RT) and incubated in the dark for the following 10 min. Luminescence was read using the PHERAstar multimode plate reader (BMG LABTECH). The raw data (the relative luminescence unit values, RLU) were uploaded under the relevant protocol and analysed in CDDVault data management platform. Luminescence (RLU) values were normalized to the controls, and reported absolute DC50 values and Dmax values were calculated in CDDVault using non-linear regression and appropriate equations.

T1 sequence (P15170 whole entry): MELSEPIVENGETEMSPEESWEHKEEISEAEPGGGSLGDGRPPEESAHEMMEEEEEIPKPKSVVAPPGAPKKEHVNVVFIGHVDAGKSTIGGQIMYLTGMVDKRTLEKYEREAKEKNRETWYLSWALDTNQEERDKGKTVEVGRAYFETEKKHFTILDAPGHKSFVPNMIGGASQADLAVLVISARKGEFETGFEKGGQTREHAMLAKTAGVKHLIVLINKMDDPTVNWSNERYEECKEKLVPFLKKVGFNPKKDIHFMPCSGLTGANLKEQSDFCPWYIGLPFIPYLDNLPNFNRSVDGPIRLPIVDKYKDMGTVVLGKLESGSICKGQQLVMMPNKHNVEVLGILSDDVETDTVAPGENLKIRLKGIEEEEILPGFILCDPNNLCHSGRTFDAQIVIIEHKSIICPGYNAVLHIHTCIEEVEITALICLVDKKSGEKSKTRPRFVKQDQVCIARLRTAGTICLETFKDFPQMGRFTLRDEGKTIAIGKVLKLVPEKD
T1 sequence (Q96SW2 whole entry): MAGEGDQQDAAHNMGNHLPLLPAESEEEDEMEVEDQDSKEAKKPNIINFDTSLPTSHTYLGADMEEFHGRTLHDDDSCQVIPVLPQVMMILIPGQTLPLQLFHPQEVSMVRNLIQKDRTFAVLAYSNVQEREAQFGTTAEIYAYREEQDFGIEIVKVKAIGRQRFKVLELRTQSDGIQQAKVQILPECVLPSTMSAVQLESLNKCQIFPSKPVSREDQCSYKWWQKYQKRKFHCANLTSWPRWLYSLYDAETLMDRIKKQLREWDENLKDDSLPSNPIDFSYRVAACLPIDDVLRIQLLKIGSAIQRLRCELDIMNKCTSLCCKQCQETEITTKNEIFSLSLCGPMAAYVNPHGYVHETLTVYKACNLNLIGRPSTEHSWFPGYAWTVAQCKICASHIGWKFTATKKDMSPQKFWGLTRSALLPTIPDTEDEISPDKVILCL
T1 sequence (Q16531 whole entry partner): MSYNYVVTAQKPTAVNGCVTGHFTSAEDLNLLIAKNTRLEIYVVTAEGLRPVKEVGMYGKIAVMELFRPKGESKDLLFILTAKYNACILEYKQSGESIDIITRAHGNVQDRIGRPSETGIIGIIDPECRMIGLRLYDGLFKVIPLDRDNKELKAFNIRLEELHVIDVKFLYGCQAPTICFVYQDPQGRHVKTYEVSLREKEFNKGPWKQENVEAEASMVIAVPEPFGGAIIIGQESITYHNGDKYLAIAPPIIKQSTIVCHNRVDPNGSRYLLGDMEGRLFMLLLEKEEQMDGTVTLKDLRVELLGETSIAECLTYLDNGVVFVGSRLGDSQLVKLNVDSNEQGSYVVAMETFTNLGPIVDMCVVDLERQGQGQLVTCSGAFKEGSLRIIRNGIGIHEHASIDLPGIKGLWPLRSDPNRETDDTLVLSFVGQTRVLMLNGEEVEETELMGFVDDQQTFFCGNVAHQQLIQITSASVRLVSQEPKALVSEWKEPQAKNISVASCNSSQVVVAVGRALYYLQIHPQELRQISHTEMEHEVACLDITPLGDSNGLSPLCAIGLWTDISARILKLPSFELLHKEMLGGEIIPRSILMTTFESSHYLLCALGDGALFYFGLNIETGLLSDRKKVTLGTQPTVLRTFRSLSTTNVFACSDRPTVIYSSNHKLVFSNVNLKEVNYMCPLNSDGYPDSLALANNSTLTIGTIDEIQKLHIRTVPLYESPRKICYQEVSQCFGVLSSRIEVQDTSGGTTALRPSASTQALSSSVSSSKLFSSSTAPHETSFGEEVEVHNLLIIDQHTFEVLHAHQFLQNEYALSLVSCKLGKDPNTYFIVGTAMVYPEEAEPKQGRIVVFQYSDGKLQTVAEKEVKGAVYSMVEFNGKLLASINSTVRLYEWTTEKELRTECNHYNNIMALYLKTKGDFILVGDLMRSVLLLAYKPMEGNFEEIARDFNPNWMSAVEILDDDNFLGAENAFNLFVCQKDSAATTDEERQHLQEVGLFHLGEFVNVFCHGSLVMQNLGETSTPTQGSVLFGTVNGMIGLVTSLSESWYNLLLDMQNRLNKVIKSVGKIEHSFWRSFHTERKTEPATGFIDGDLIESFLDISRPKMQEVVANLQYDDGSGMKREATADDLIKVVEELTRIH
Chain of [GSPT1]-[compound of formula (I)]-[CRBN/DDB1] complex (P15170 whole entry): as the sequence (P15170 whole entry) above
Chain of [GSPT1]-[compound of formula (I)]-[CRBN/DDB1] complex (Q96SW2 whole entry): as the sequence (Q96SW2 whole entry) above
Chain of [GSPT1]-[compound of formula (I)]-[CRBN/DDB1] complex (Q16531 whole entry partner): as the sequence (Q16531 whole entry partner) above
Chain of [CK1α]-[compound]-[CRBN/DDB1] ternary complex (P48729 whole entry): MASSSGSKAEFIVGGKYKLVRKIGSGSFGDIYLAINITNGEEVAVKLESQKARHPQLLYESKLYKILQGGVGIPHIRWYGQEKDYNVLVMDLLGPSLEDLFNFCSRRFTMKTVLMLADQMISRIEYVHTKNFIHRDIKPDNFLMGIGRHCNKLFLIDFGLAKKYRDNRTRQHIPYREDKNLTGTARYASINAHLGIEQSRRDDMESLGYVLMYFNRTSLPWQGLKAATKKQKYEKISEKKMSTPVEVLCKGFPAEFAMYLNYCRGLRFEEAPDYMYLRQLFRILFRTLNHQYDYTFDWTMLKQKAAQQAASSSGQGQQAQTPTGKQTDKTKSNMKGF
Chain of [CK1α]-[compound]-[CRBN/DDB1] ternary complex (Q96SW2 whole entry): as the sequence (Q96SW2 whole entry) above
Chain of [CK1α]-[compound]-[CRBN/DDB1] ternary complex (Q16531 whole entry partner): as the sequence (Q16531 whole entry partner) above

Row | EC50 [1] [µM] | activation at 1 µM [2] [%] | Dmax [3] [%] | DC50 [3] [µM] | Compound
1 | > 3.16 | < 10 | – | – | Cc1ccc(NC(=S)NCc2ccc3cc(C4CCC(=O)NC4=O)c(C)nc3c2)cc1Cl (centres unmarked) [Compound 2, 1-(3-chloro-4-methylphenyl)-3-((3-(2,6-dioxopiperidin-3-yl)-2-methylquinolin-7-yl)methyl)thiourea]
2 | 0.316 to 3.16 | < 10 | ≥ 75 | 0.01 to 0.05 | Cc1ccc(NC(=O)OCc2ccc3cc(C4CCC(=O)NC4=O)c(C)nc3c2)cc1Cl (centres unmarked) [Compound 4, (3-(2,6-dioxopiperidin-3-yl)-2-methylquinolin-7-yl)methyl (3-chloro-4-methylphenyl)carbamate]
3 | > 3.16 | < 10 | – | – | Cc1ccc(NC(=O)OCc2ccc3nc(C)c(C4CCC(=O)NC4=O)cc3c2)cc1Cl (centres unmarked) [Compound 5, (3-(2,6-dioxopiperidin-3-yl)-2-methylquinolin-6-yl)methyl (3-chloro-4-methylphenyl)carbamate]
4 | 0.316 to 3.16 | < 10 | ≥ 75 | 0.01 to 0.05 | Cc1nc2cc(COC(=O)Nc3cc(OC(F)(F)F)ccc3F)ccc2cc1C1CCC(=O)NC1=O (centres unmarked) [Compound 6, (3-(2,6-dioxopiperidin-3-yl)-2-methylquinolin-7-yl)methyl (2-fluoro-5-(trifluoromethoxy)phenyl)carbamate]
5 | 0.316 to 3.16 | < 10 | ≥ 75 | < 0.01 | Cc1nc2cc(COC(=O)Nc3ccc(C(C)(C)C)cc3)ccc2cc1C1CCC(=O)NC1=O (centres unmarked) [Compound 8, (3-(2,6-dioxopiperidin-3-yl)-2-methylquinolin-7-yl)methyl (4-(tert-butyl)phenyl)carbamate]
6 | 0.316 to 3.16 | < 10 | ≥ 75 | 0.01 to 0.05 | Cc1nc2cc(COC(=O)Nc3cccc(C(C)(C)C)c3)ccc2cc1C1CCC(=O)NC1=O (centres unmarked) [Compound 9, (3-(2,6-dioxopiperidin-3-yl)-2-methylquinolin-7-yl)methyl (3-(tert-butyl)phenyl)carbamate]
7 | < 0.316 | < 10 | ≥ 75 | < 0.01 | Cc1nc2cc(COC(=O)Nc3ccc(C(C)(C)C)c(Cl)c3)ccc2cc1C1CCC(=O)NC1=O (centres unmarked) [Compound 10, (3-(2,6-dioxopiperidin-3-yl)-2-methylquinolin-7-yl)methyl (4-(tert-butyl)-3-chlorophenyl)carbamate]
8 | 0.316 to 3.16 | < 10 | ≥ 75 | < 0.01 | COc1ccc(NC(=O)OCc2ccc3cc(C4CCC(=O)NC4=O)c(C)nc3c2)cc1Cl (centres unmarked) [Compound 11, (3-(2,6-dioxopiperidin-3-yl)-2-methylquinolin-7-yl)methyl (3-chloro-4-methoxyphenyl)carbamate]
9 | 0.316 to 3.16 | < 10 | ≥ 75 | 0.01 to 0.05 | Cc1nc2cc(COC(=O)Nc3ccc(Cl)c(Cl)c3)ccc2cc1C1CCC(=O)NC1=O (centres unmarked) [Compound 12, (3-(2,6-dioxopiperidin-3-yl)-2-methylquinolin-7-yl)methyl (3,4-dichlorophenyl)carbamate]
10 | 0.316 to 3.16 | < 10 | ≥ 75 | 0.01 to 0.05 | Cc1nc2cc(COC(=O)Nc3ccc4c(c3)OCO4)ccc2cc1C1CCC(=O)NC1=O (centres unmarked) [Compound 14, (3-(2,6-dioxopiperidin-3-yl)-2-methylquinolin-7-yl)methyl benzo[d][1,3]dioxol-5-ylcarbamate]
11 | 0.316 to 3.16 | < 10 | ≥ 75 | < 0.01 | Cc1nc2cc(COC(=O)Nc3ccc4c(c3)OCCO4)ccc2cc1C1CCC(=O)NC1=O (centres unmarked) [Compound 15, (3-(2,6-dioxopiperidin-3-yl)-2-methylquinolin-7-yl)methyl (2,3-dihydrobenzo[b][1,4]dioxin-6-yl)carbamate]
12 | < 0.316 | < 10 | ≥ 75 | < 0.01 | Cc1nc2cc(COC(=O)Nc3cc(Cl)c(C)c(CN4CCOCC4)c3)ccc2cc1C1CCC(=O)NC1=O (centres unmarked) [Compound 17, (3-(2,6-dioxopiperidin-3-yl)-2-methylquinolin-7-yl)methyl (3-chloro-4-methyl-5-(morpholinomethyl)phenyl)carbamate]
13 | 0.316 to 3.16 | < 10 | ≥ 75 | 0.01 to 0.05 | Cc1nc2cc(COC(=O)Nc3ccc(C(F)(F)F)c(Cl)c3)ccc2cc1C1CCC(=O)NC1=O (centres unmarked) [Compound 18, (3-(2,6-dioxopiperidin-3-yl)-2-methylquinolin-7-yl)methyl (3-chloro-4-(trifluoromethyl)phenyl)carbamate]
14 | > 3.16 | < 10 | ≥ 75 | < 0.01 | Cc1nc2cc(COC(=O)Nc3cccc(OC(F)(F)F)c3)ccc2cc1C1CCC(=O)NC1=O (centres unmarked) [Compound 19, (3-(2,6-dioxopiperidin-3-yl)-2-methylquinolin-7-yl)methyl (3-(trifluoromethoxy)phenyl)carbamate]
15 | < 0.316 | < 10 | ≥ 75 | < 0.01 | Cc1nc2cc(COC(=O)Nc3ccc(-c4ccccc4)nc3)ccc2cc1C1CCC(=O)NC1=O (centres unmarked) [Compound 20, (3-(2,6-dioxopiperidin-3-yl)-2-methylquinolin-7-yl)methyl (6-phenylpyridin-3-yl)carbamate]
